Laboratory results reported in PMC11539229 (Antimicrobial Agents and Chemotherapy, 2024).
In brackets after ≈: the same amount, converted by molar mass.

How the values were obtained:
in vivo = experiment: in vivo; parameters: species or system C57BL/6 mice; conditions: iv, 1 mg/kg
Protocol: To determine the pharmacokinetic parameters, GSK138 was administered intravenously [formulation: 5% dimethyl sulfoxide (DMSO)/20% Encapsin in saline solution] as a single bolus dose in C57BL/6 mice at a target dose of 1 mg/kg. All pharmacokinetic parameters were determined in whole blood (Table 1). A moderate clearance and a moderate volume of distribution were observed.
Single-dose pharmacokinetics experiments were performed in female C57BL/6 mice, 21–29 g, obtained from Charles River Laboratories (Wilmington, MA, USA) and housed in cages in groups of three animals with water and food ad libitum. Animals were maintained for 1 week before the experiment.
The compound was dissolved in 20% Encapsin (Sigma-Aldrich), 5% DMSO (Sigma-Aldrich) in saline solution (Sigma-Aldrich) for intravenous administration, and in 1% methylcellulose (Sigma-Aldrich) in water for oral administration.
For PK analysis, 25 µL of tail blood was collected by microsampling at 0.08, 0.25, 0.5, 1.0, 2.0, 4.0, 6.0, 8.0, and 24.0 h for intravenous pharmacokinetics and 0.25, 0.5, 1.0, 2.0, 4.0, 6.0, 8.0, and 24.0 h for oral pharmacokinetics.

[1] = system: drug-susceptible, MDR and XDR M.tb clinical isolates; experiment: microbe, parasite or virus in culture; assay type: cell-based, M. tuberculosis; conditions: Mycobacterium tuberculosis
[2] = Protocol: The Ames assay was carried out as previously described ([34]) using all strains.
[3] = system: H37Rv-Luc inside THP-1-derived macrophages; experiment: Intracellular MIC in THP-1-derived macrophages, luciferase read-out; assay type: cell-based, M. tuberculosis; conditions: Mycobacterium tuberculosis, mean ± SD, read-out: Mtb intracell MIC
HepG2 cells = assay type: cell-based; conditions: human, 48 h
Protocol: HepG2 cells were cultured using Eagle’s minimum essential media (EMEM) supplemented with 10% heat-inactivated FBS, 1% non-essential amino acid (NEAA), and 1% penicillin/streptomycin. Prior to addition of the cell suspension, 250 nL of test compounds per well was pre-dispensed in tissue culture-treated black clear-bottomed 384-well plates (Greiner, cat. no. 781091) with an Echo 555 instrument. After that, 25 µL of HepG2 (cat. no. ATCC HB-8065) cells (∼3,000 cells/well) grown to confluency in EMEM supplemented with 10% heat-inactivated FBS, 1% NEAA, and 1% penicillin/streptomycin were added to each well with the reagent dispenser. Plates were allowed to incubate at 37°C with 20% O2 and 5% CO2 for 48 hrs. After incubation, the plates were equilibrated to room temperature before ATP levels were measured with the CellTiter Glo kit (Promega) as the cell viability read-out. 25 µL of CellTiter Glo substrate dissolved in the buffer was added to each well. Plates were incubated at room temperature for 10 min for stabilization of luminescence signal and read on a View Lux luminometer with excitation and emission filters of 613 and 655 nm, respectively. The Tox50 value corresponds to the concentration of the compound necessary to inhibit 50% of cell growth.

## Cc1csc([C@](C)(O)c2nnc(Nc3cc(C)n(Cc4csc(C)n4)n3)s2)n1 [GSK138]
In vivo; female, C57BL/6, mouse
  Vd: 2.6 ± 0.3 L/kg
  clearance: 77.6 ± 16.8 mL/min/kg
In vivo; mouse
  clearance: moderate
  volume of distribution: moderate
[1]
  MIC90: 3.75 µM (≈ 1.63 µg/mL)
[2]
  Ames test: Negative
[3]
  MIC: 0.9 µM (≈ 0.39 µg/mL)
HepG2 cells
  HepG2 cytotoxicity Tox50: >100 µM
